Entries after “also recorded” stand apart in the source; their conditions may differ. Like-named read-outs stand apart in the source and are kept apart here. Numbered stars: 1 amine (or outer) side, 2 acyl side, 3 side chain; on linkers, the order of the positions; unused ones are H or OH. Square brackets hold non-standard residues; d marks the D form. Peptide text beside a SMILES is read from it. LeuΨ(S-CHOHCH2)Ala = CC(C)C[C@H](N[*:1])[C@@H](O)C[C@@H](C)C(=O)[*:2]; Sta = CC(C)C[C@H](N)[C@@H](O)CC(=O)O
Assays:
[1] = tested on: human brain endothelial cells; assay: viability of human brain endothelial cells (LDH activity in culture medium); assay type: cell-based; conditions: 24 hours; for cellular toxicity / viability of human brain endothelial cells versus control: doses employed; for LDH activity in the culture medium, ANOVA main effect: various doses
Description: (§1) Primary cultures of human brain endothelial cells were plated at a density of 10^4 cells/[…] of EBM 4% in 96 wells culture plates and treated with various doses of γ-secretase and β-secretase inhibitors as indicated in the figure legends. Following 24 hours in culture, the EBM covering the cells was removed and assayed for Lacticodehydrogenase (LDH) activity using the cytotoxicity detection kit (Roche Diagnostic Corporation, Ind.). Cells were covered with […] of EBM 4% and cellular proliferation measured using the Quick cell proliferation assay kit (Biovision Research Products, Calif.).

[2] = tested on: human brain endothelial cells; assay: proliferation of human brain endothelial cells (Quick cell proliferation assay kit); assay type: cell-based; conditions: various doses, 24 hours
Description: as §1

[3] = tested on: Aβ; conditions: cited from earlier work
[4] = biological target: γ-secretase; conditions: 7PA2 cells; cited from earlier work
[5] = angiogenesis in vitro (test not specified); assay type: cell-based
[6] = tested on: human lung adenocarcinoma (A-549) xenografts; assay: human lung adenocarcinoma A-549 xenografts in nude mice; assay type: in vivo
Description: FIG. 9a: Anti-tumoral effect of the γ-secretase inhibitor DAPT and of the β-secretase inhibitor Z-VLL-CHO on human lung adenocarcinoma (A-549) xenografts growth rates. A-549 cells (8.5×10^6) were injected subcutaneously into both flanks of 8-10 weeks-old nude mice. Mice were injected intraperitoneally with either the vehicle, 5 mg/Kg of body weight of the β-secretase inhibitor Z-VLL-CHO or 10 mg/Kg of body weight of the γ-secretase inhibitor DAPT, starting when tumors had reached a mean tumor volume of approximately 200 mm^3 (day 21 post implantation). Injections were given everyday for 12 days. […] FIG. 9b: Representative pictures of sections of lung adenocarcinoma tumors immunostained with CD31 antibodies. FIG. 9c: Histogram depicting the quantification of the vascularization of lung adenocarcinoma tumors.
FIG. 10: Anti-tumoral effect of the γ-secretase inhibitor JLK-6 on human lung adenocarcinoma (A-549) xenografts growth rates. A-549 cells (8.5×10^6) were injected subcutaneously into both flanks of 8-10 weeks-old nude mice. Mice were injected intraperitoneally everyday from Day 16 (when the tumors reached a volume of approximately 150 mm^3) with either the vehicle or 5 mg/Kg of body weight of the γ-secretase inhibitor JLK-6.
The human glioblastoma U-87 MG and human lung adenocarcinoma A-549 cell lines were obtained from American Tissue Culture Type Collection (Manassas, Va.) and were grown in DMEM containing 1×penicilline-streptomycine-fungizone and 10% fetal bovine serum at 37° C. in a humidified atmosphere of 5% CO2. Tumor cells (6×106) in 100 μl of PBS were inoculated subcutaneously into both flanks of 8-10-week-old female nude mice (Harland). Tumor volume (in mm^3) was determined using the formula (length×width^2)/2, where length was the longest axis and width the measurement at right angles to the length (Clarke et al. 2000). When the tumor volumes reached approximately 150 mm^3, animals were treated intraperitoneally everyday with 100 μl of 50% DMSO/H2O (vehicle group), 5 mg/Kg of body weight of Z-VLL-CHO (β-secretase inhibitor), 5 mg/Kg of JLK-6 (γ-secretase inhibitor) or with 10 mg/Kg of body weight of DAPT. Data were expressed as mean tumor volume±S.E for each treatment group.
At the completion of the study, animals were humanely euthanized and tumors were harvested and fixed in paraformaldehyde 4% overnight at 4° C. After paraffin embedding in an automated tissue processing Sakura Tissue-Tek (E150) (Torrence, Calif.), samples were cut into 5 μm sections, deparafinized, and rehydrated through a graded series of alcohol. Sections were treated with 0.02 mg/ml Proteinase K (Gentra Systems, MN) for 15 minutes at 37° C. to allow for proper antigen retrieval, washed several times in PBS and incubated for 15 minutes in a 0.3% solution of hydrogen peroxide. Sections were blocked and then immunostained with a 1:40 dilution of a PECAM-1 antibody (BD-Pharmingen, CA) overnight at 4° C. in a humidification chamber. Vector ABC Kits (Vector Laboratories Inc, CA) where used following the manufacturer's instruction for the immunostaining. Quantification of tumor vascularization was performed using the stereological dissector method. Briefly, forty consecutive sections were taken from a randomly chosen starting point in each tumor. Five sections for each tumor were selected for stereology by taking one section every eight sections. A dissector counting frame was used with inclusion and exclusion lines throughout the reference area. Vessel count was performed at ×400 magnification with the use of an Olympus microscope connected to a digital video camera. Microvessels were counted in the dissector frame by an experimenter unaware of the different treatment conditions. For each tumor an average vessel count per area of dissector frame was determined. A vascular index was calculated by expressing the vessel count as a percentage of the vessel count in the vehicle treatment condition.

[7] = tested on: Notch; conditions: cited from earlier work
[8] = tested on: presenilin 1 and 2; conditions: cited from earlier work
[9] = tested on: Human middle cerebral artery endothelial cells; assay: capillary morphogenesis assay; assay type: cell-based
Description: Two hundred μl of Matrigel were placed into each well of a 24-well culture plate at 4° C. and allowed to polymerize by incubation at 37° C. Human middle cerebral artery endothelial cells (5×104) were seeded on the Matrigel in 1 ml of EBM containing 4% fetal calf serum. The cells were incubated at 37° C. for 20 hours in a humidified 5% CO2 atmosphere in the presence or absence of various doses of γ-secretase and β-secretase inhibitors as indicated in the figure legends. The experiments were performed in quadruplicate for each treatment condition. For each culture, 2 randomly chosen fields were photographed using a 4×objective. An experimenter unaware of the different treatments measured the total length of tube structures in each photograph using the Image Pro Plus software (Media Cybernetic, Inc., Md.). Capillary network lengths for the different treatment conditions were expressed as the percentage of capillary network lengths obtained in the control condition.

[10] = tested on: APP; assay: α-sAPP secretion by human brain endothelial cells (immunoprecipitation, immunoblotting); assay type: cell-based; conditions: 5 μM, 24 hours
Description: (§2) Confluent human brain endothelial cells (grown on 75 cm2 flasks with EBM 4% FBS medium) were treated for 24 hours with 5 μM of Z-VVL-CHO, 5 μM of L-685,458, 5 μM of OM99-2, 5 AM of DAPT or went untreated (control). Experiments were done in quadriplicate for each treatment condition. 6E10 (Signet), a mAb that recognizes residues 1-17 of human Aβ (Van Nostrand et al., Nature, 341, 546-549, 1989) was used to immunoprecipitate soluble APP generated following cleavage by α-secretase from cell culture medium. Immunoprecipitated material was resolved on a 4-20% gradient SDS-PAGE, transferred to PVDF membranes and immunodetected with mAb 22C11 (Roche Diagnostics) that recognizes the amino acids 66-81 of the N-terminal portion of APP (Hibich, C., J. Biol. Chem., 268, 26571-26577, 1993). Human brain endothelial cells were lysed on ice using MPERTM reagent (Pierce) supplemented with 1 mM PMSF and 1 mM of sodium-orthovanadate. Samples were sonicated and centrifuged at 10,000 g for 30 min at 4° C. The protein content of the lysates was determined using the BCA Protein assay kit (Pierce). Total lysates ([…] of protein/sample) were separated on a 4-20% gradient SDS-PAGE and transferred to PVDF membranes and immunoprobed with mAb 22C11 in order to detect full length APP and also immunoprobed with an Anti-APP-CT20 (Calbiochem) antibody which recognizes the amino acid residues 751-770 of the carboxyl terminal region of APP (Pinnix et al. 2001; J. Biol. Chem., 276, 481).

[11] = tested on: presenilin; conditions: cited from earlier work
[12] = tested on: explants of rat aortae; assay: rat aortic ring model of angiogenesis (microvessel outgrowths); assay type: cell-based, Sprague Dawley rats
Description: Twenty four well tissue culture grade plates (Nalgene International, NY) were covered with […] of Matrigel (Becton-Dickinson, Bedford, Mass.) and allowed to gel for 30 min at 37° C., 5% CO2. Briefly, thoracic aortae were excised from 9 month-old Sprague Dawley rats. After removing the fibroadipose tissue, arteries were sectioned into 1 mm long cross sections, rinsed 5 times with EBM (Clonetics Corp.) containing 4% fetal bovine serum (FBS) and placed on the Matrigel coated wells. Artery rings were covered with an additional […] of Matrigel. After polymerization the Matrigel was covered with 1 mL of EBM (4% FBS) containing various doses of Z-VVL-CHO, OM99-2, P10-P4′statV, DAPT, or L-685,458 as indicated in the figure legends (the culture medium was changed every 3 days). Pictures were taken at day 4, 5 and 6 using a 4×objective. Microvessel outgrowth area was quantified using the Image Pro Plus software. Briefly, ring cultures were photographed using a digital video camera linked to an Olympus BX60 microscope. The outgrowth area was delineated and measured with the Image Pro Plus software by using a strategy of microvessel outgrowth detection based on difference in color intensities between the outgrowths, the Matrigel and the artery ring. The artery rings were manually selected and excluded from the area of measurement and the color intensity threshold was adjusted to selectively measure the area occupied by the microvessel outgrowths. Results were expressed as a percentage of the area occupied by microvessel outgrowths at day 4 in control condition.

[13] = tested on: APP; assay: carboxyl-terminal APP fragments in human brain endothelial cell lysates (immunoblotting); assay type: cell-based; conditions: 5 μM, 24 hours
Description: as §2

[14] = tested on: aspartyl protease cathepsin; conditions: cited from earlier work
[15] = biological target: γ-secretase; conditions: cited from earlier work
[16] = biological target: BACE (Homo sapiens, UniProt P56817); conditions: cited from earlier work
BACE, sequence (P56817 46-501, species assumed): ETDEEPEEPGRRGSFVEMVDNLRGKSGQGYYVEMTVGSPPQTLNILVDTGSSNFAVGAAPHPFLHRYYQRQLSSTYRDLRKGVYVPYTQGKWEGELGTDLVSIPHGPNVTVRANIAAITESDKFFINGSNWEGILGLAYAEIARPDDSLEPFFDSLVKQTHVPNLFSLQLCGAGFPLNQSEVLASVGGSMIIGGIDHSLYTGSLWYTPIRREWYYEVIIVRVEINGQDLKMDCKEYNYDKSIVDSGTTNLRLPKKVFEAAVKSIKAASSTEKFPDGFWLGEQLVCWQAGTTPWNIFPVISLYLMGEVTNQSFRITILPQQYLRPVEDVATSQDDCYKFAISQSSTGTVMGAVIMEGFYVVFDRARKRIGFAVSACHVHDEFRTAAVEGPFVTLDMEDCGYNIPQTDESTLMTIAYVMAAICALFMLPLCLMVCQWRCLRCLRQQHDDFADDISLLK

## COC(=O)C(NC(=O)C(C)NC(=O)Cc1cc(F)cc(F)c1)c1ccccc1 [DAPM, N-[N-3,5-difluorophenacetyl]-L-alanyl-S-phenylglycine methyl ester]
[1]
  cellular toxicity / viability of human brain endothelial cells versus control: without inducing cellular toxicity
[2]
  proliferation of human brain endothelial cells, dose dependence: dose dependently inhibited
[3]
  early Aβ oligomerization (Aβ dimer and trimer formation): prevents
[4]
  IC50: ~0.01 µM

## CC(C)C[C@H](NC(=O)[C@H](CC(N)=O)NC(=O)[C@@H](NC(=O)[C@@H](N)CCC(=O)O)C(C)C)[C@@H](O)CC(=O)N[C@H](C(=O)N[C@@H](C)C(=O)N[C@@H](CCC(=O)O)C(=O)N[C@@H](Cc1ccccc1)C(N)=O)C(C)C [GL189, H-Glu-Val-Asn-Statine-Val-Ala-Glu-Phe-NH] (H-EVN[Sta]VAEF-NH2)
[1]
  cellular toxicity / viability of human brain endothelial cells versus control: without affecting their viability

## COc1oc(=O)c2cc(N)ccc2c1Cl [JLK-6, 7-amino-4-chloro-3-methoxyisocoumarin]
[5]
  angiogenesis in vitro: appears to reduce angiogenesis
[1]
  cellular toxicity / viability of human brain endothelial cells versus control: without inducing cellular toxicity
[2]
  proliferation of human brain endothelial cells, dose dependence: dose dependently inhibited
[6]; 5 mg/Kg intraperitoneally
  vascularization of A-549 tumors: inhibited
[6]; 5 mg/Kg intraperitoneally everyday from Day 16
  growth (tumor volume) of A-549 xenografts versus vehicle: inhibited; also recorded: significantly inhibits the growth; also recorded: inhibit the growth
[7]
  processing of Notch: does not affect
[8]
  proteolysis of presenilin 1 and 2: does not affect

## CC(C)CC(NC(=O)C(Cc1ccccc1)CC(O)C(Cc1ccccc1)NC(=O)OC(C)(C)C)C(=O)NC(Cc1ccccc1)C(N)=O [L-685,458, {1S-Benzyl-4R-[1-(1S-carbamoyl-2-phenethylcarbamoyl)-1S-3-methylbutylcarba-moyl]-2R-hydroxy-5-phenyl-pentyl}carbamic acid tert-butyl ester]
[9]; 5 μM, 20 hours
  capillary network length / capillary morphogenesis versus control: potent angiogenic effect
[9]; low dose
  capillary morphogenesis: stimulated capillary morphogenesis
[10]
  secretion of α-sAPP: not
[1]
  cellular toxicity / viability of human brain endothelial cells versus control: without inducing cellular toxicity
  LDH activity in the culture medium, ANOVA main effect: no main effect
[2]
  proliferation of human brain endothelial cells, dose dependence: dose dependently inhibited
[11]
  binding to presenilin: binds to presenilin
[7]
  Notch intracellular domain production: blocks
[12]; 1 μM
  area covered by microvessel outgrowths versus control: inhibited
[12]; 5 μM
  area covered by microvessel outgrowths versus control: inhibited
[13]
  accumulation of carboxyl-terminal APP fragments (APP CTF): stimulates
[13]; listed as L-685-485
  accumulation of carboxyl-terminal APP fragments (APP CTF): promoted the accumulation
[14]
  selectivity for γ-secretase than for the aspartyl protease cathepsin: over a hundred-fold greater
[15]; read-out: Ab40 IC50
  IC50: 0.048 µM
[15]; read-out: Ab42 IC50
  IC50: 0.067 µM
[15]; read-out: Abtotal IC50
  IC50: 0.017 µM

## CC(C)C[C@H](NC(=O)[C@H](CC(N)=O)NC(=O)[C@@H](NC(=O)[C@@H](N)CCC(=O)O)C(C)C)[C@@H](O)C[C@@H](C)C(=O)N[C@@H](C)C(=O)N[C@@H](CCC(=O)O)C(=O)N[C@@H](Cc1ccccc1)C(=O)O [OM99-2, Glu-Val-Asn-Leu-ψ-Ala-Ala-Glu-Phe [ψ denotes replacement of CONH by (S)—CH(OH)CH2]] (H-EVN[LeuΨ(S-CHOHCH2)Ala]AEF-OH)
[1]
  cellular toxicity / viability of human brain endothelial cells versus control: without affecting their viability
  LDH activity in the culture medium, ANOVA main effect: significant main effect

## H-Lys-Thr-Glu-Glu-Ile-Ser-Glu-Val-Asn-Stat-Val-Ala-Glu-Phe-OH [P10-P4′statV, H-Lys-Thr-Glu-Glu-Ile-Ser-Glu-Val-Asn-Stat-Val-Ala-Glu-Phe-OH [Stat=(3S,4S)-Statine]]
[16]
  IC50: 0.03 µM
[12]; day 4, 5 and 6
  sprouting of microvessel outgrowths, overall / dose dependence: dose dependently and potently inhibited

Source: patent US20040229816A1, “Anti-angiogenic and anti-tumoral properties of beta and gamma secretase inhibitors” (priority 2003, published 2004)
